Measured values reported in patent publication US10294202B2, “Pyrrolidinones as herbicides” (FMC Corporation, priority 2013, dated 2019).

Tests used:
[1] = tested on: giant foxtail; test: Test A pre-/postemergence herbicide test; format: in vivo, Setaria faberii
Procedure, shortened: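 Planted in loam–sand blend; treated the same day preemergence by directed soil spray, while separately grown plants at one- to two-leaf stage got postemergence spray. Compared visually with untreated controls after approximately 10 days; 100 means complete control.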

[2] = tested on: sedge, umbrella; test: Test B flooded paddy test; format: in vivo, Cyperus difformis; details: 500 g ai/ha, Flood; scale of 0 to 100 where 0 is no effect and 100 is complete control
Procedure, shortened: (§1)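 Scoring: visual, compared with untreated controls, 0 = no effect through 100 = complete control, taken 13 to 15 days after treatment in the greenhouse. Compounds had been added to paddy water over soil flooded 3 cm deep at the plants' 2-leaf stage.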

[3] = tested on: barnyardgrass; test: Test B flooded paddy test; format: in vivo, Echinochloa crus-galli; details: 500 g ai/ha, Flood; scale of 0 to 100 where 0 is no effect and 100 is complete control
Procedure, shortened: as §1

[4] = tested on: ryegrass, Italian; test: Test C pre-/postemergence herbicide test; format: in vivo, Lolium multiflorum
Procedure, shortened: (§2)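 Test compounds, formulated in a surfactant-containing non-phytotoxic solvent blend, are applied to seeded loam/sand soil (preemergence) and to young plants at the 1- to 4-leaf stage in peat-based medium (postemergence). Plants stay 13 to 15 days under greenhouse conditions, then are scored visually relative to controls, 0 = no effect, 100 = complete control.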

[5] = tested on: crabgrass, large; test: Test C pre-/postemergence herbicide test; format: in vivo, Digitaria sanguinalis
Procedure, shortened: as §2

[6] = tested on: johnsongrass; test: Test C pre-/postemergence herbicide test; format: in vivo, Sorghum halepense
Procedure, shortened: as §2

[7] = tested on: ragweed; test: Test C pre-/postemergence herbicide test; format: in vivo, Ambrosia elatior
Procedure, shortened: as §2

[8] = tested on: barnyardgrass; test: Test C pre-/postemergence herbicide test; format: in vivo, Echinochloa crus-galli
Procedure, shortened: as §2

[9] = tested on: waterhemp; test: Test C pre-/postemergence herbicide test; format: in vivo, Amaranthus rudis
Procedure, shortened: as §2

[10] = tested on: oat, wild; test: Test C pre-/postemergence herbicide test; format: in vivo, Avena fatua; details: Postemergence
Procedure, shortened: as §2

[11] = tested on: velvetleaf; test: Test C pre-/postemergence herbicide test; format: in vivo, Abutilon theophrasti
Procedure, shortened: as §2

[12] = Postemergence, 31 g ai/ha, scale 0 to 100 (0 no effect, 100 complete control)
[13] = Postemergence, 62 g ai/ha, scale 0 (no effect) to 100 (complete control)
[14] = Postemergence, 125 g ai/ha, scale 0 to 100 (0 no effect, 100 complete control)
[15] = Postemergence, 250 g ai/ha, scale 0 to 100 (0 no effect, 100 complete control)
[16] = Preemergence, 31 g ai/ha, scale 0 to 100, 0 is no effect and 100 is complete control
[17] = Preemergence, 62 g ai/ha, scale 0 to 100 (0 no effect, 100 complete control)
[18] = Preemergence, 125 g ai/ha, scale 0 to 100 (0 no effect, 100 complete control)

CN1CC(c2ccc(F)c(F)c2)C(C(=O)Nc2ccccc2F)C1=O (stereo not drawn) [Compound 302]
Plant response rating, Foxtail, Giant ([1]; Postemergence, 125 g ai/ha, visual rating on 0 to 100 scale (0 no effect, 100 complete control), approx. 10 days): 80
Plant response rating, Foxtail, Giant ([1]; Postemergence, 500 g ai/ha, 0 to 100 scale (0 no effect, 100 complete control)): 80
Plant response rating, Foxtail, Giant ([1]; Preemergence, 125 g ai/ha, 0 to 100 scale where 0 is no effect and 100 is complete control): 90
Foxtail, Giant plant response rating ([1]; Preemergence, 500 g ai/ha, visual rating on 0 to 100 scale (0 no effect, 100 complete control)): 90
Plant response rating, Sedge, Umbrella [2]: 0
Plant response rating, Barnyardgrass [3]: 80
Plant response rating, Ryegrass, Italian [4, 12]: 0
Plant response rating, Ryegrass, Italian [4, 13]: 0
Plant response rating, Ryegrass, Italian [4, 14]: 0
Plant response rating, Ryegrass, Italian [4, 15]: 0
Ryegrass, Italian plant response rating [4, 16]: 0
Ryegrass, Italian plant response rating [4, 17]: 0
Plant response rating, Ryegrass, Italian [4, 18]: 5
Plant response rating (scale of 0 to 100), Ryegrass, Italian ([4]; Preemergence, 250 g ai/ha): 40
Plant response rating, Crabgrass, Large [5, 12]: 0
Plant response rating, Crabgrass, Large [5, 13]: 50
Plant response rating, Crabgrass, Large [5, 14]: 70
Plant response rating, Crabgrass, Large [5, 15]: 85
Crabgrass, Large plant response rating [5, 16]: 95
Crabgrass, Large plant response rating [5, 17]: 98
Plant response rating, Crabgrass, Large [5, 18]: 100
Plant response rating (scale of 0 to 100), Crabgrass, Large ([5]; Preemergence, 250 g ai/ha): 100
Plant response rating, Johnsongrass [6, 12]: 0
Plant response rating, Johnsongrass [6, 13]: 0
Plant response rating, Johnsongrass [6, 14]: 0
Plant response rating, Johnsongrass [6, 15]: 10
Johnsongrass plant response rating [6, 16]: 0
Johnsongrass plant response rating [6, 17]: 15
Plant response rating, Johnsongrass [6, 18]: 45
Plant response rating (scale of 0 to 100), Johnsongrass ([6]; Preemergence, 250 g ai/ha): 65
Plant response rating, Ragweed [7, 12]: 10
Plant response rating, Ragweed [7, 13]: 20
Plant response rating, Ragweed [7, 14]: 20
Plant response rating, Ragweed [7, 15]: 55
Ragweed plant response rating [7, 16]: 35
Ragweed plant response rating [7, 17]: 5
Plant response rating, Ragweed [7, 18]: 5
Plant response rating (scale of 0 to 100), Ragweed ([7]; Preemergence, 250 g ai/ha): 10
Plant response rating, Barnyardgrass [8, 12]: 0
Plant response rating, Barnyardgrass [8, 13]: 20
Plant response rating, Barnyardgrass [8, 14]: 40
Plant response rating, Barnyardgrass [8, 15]: 90
Barnyardgrass plant response rating [8, 16]: 90
Barnyardgrass plant response rating [8, 17]: 85
Plant response rating, Barnyardgrass [8, 18]: 100
Plant response rating (scale of 0 to 100; 0 is no effect, 100 is complete control), Barnyardgrass ([8]; Preemergence, 250 g ai/ha): 100
Plant response rating, Waterhemp [9, 12]: 10
Plant response rating, Waterhemp [9, 13]: 20
Plant response rating, Waterhemp [9, 14]: 20
Plant response rating, Waterhemp [9, 15]: 25
Waterhemp plant response rating [9, 16]: 30
Waterhemp plant response rating [9, 17]: 35
Plant response rating, Waterhemp [9, 18]: 65
Plant response rating (scale of 0 to 100), Waterhemp ([9]; Preemergence, 250 g ai/ha): 55
Plant response rating, Oat, Wild ([10]; 31 g ai/ha, scale 0 to 100 (0 no effect, 100 complete control)): 0
Plant response rating, Oat, Wild ([10]; 62 g ai/ha, scale 0 (no effect) to 100 (complete control)): 0
Plant response rating, Oat, Wild ([10]; 125 g ai/ha, scale 0 to 100 (0 no effect, 100 complete control)): 0
Plant response rating, Oat, Wild ([10]; 250 g ai/ha, scale 0 to 100 (0 no effect, 100 complete control)): 0
Plant response rating, Velvetleaf [11, 12]: 0
Plant response rating, Velvetleaf [11, 13]: 0
Plant response rating, Velvetleaf [11, 14]: 0
Plant response rating, Velvetleaf [11, 15]: 20
Velvetleaf plant response rating [11, 16]: 0
Velvetleaf plant response rating [11, 17]: 0
Plant response rating, Velvetleaf [11, 18]: 0
Plant response rating (scale of 0 to 100), Velvetleaf ([11]; Preemergence, 250 g ai/ha): 0
